Series [1] in a line: Repeat-dose dose-escalation study of controlled release anagrelide: pharmacokinetics. In kind it is in vivo, human. The conditions noted are these: for AUC0-inf / AUC0-t / AUC0-τ / Cmax: dose-normalized to 0.2 mg. The procedure: A placebo-controlled, double-blind repeat-dose, dose-escalation, sequential cohort study was conducted to evaluate the pharmacokinetics and pharmacodynamics of a controlled release composition of anagrelide as described herein in healthy subjects. An objective of the study was to explore the dose-response relationship for effects on platelet counts of a low dose range of a composition of anagrelide as described herein in healthy subjects. Other objectives of the study included determining the time course of effect and recovery of a range of doses of the composition including anagrelide on platelet count, determining the effects of a range of doses of the anagrelide compositions on platelet aggregation (collagen and ADP as agonists), determining the single and repeat dose pharmacokinetics of the anagrelide composition, and exploring the safety and tolerability of the compositions given as single doses and repeatedly for up to 21 days.
Eligible subjects were treated as follows: • Subjects were admitted to the unit on day 1 in the morning after an overnight fast and remain in the unit until 4 hours after morning dosing on day 5. • Subjects received a single dose of controlled release composition including anagrelide (or matching placebo) on day 1 in the morning. • Subjects commenced repeat dosing twice a day with the controlled release anagrelide composition on the morning of day 3 and remained in the unit until 4 hours after morning dose on day 5. • Subjects continued repeat twice a day dosing with the controlled release anagrelide composition as outpatients. Dosing continued until the morning of day 23. • All morning doses were taken after an overnight fast of at least 8 hour. • All evening doses were taken at least 2 hour after food consumption. No food was to be consumed for at least 1 hour after any dose (4 hours for the morning doses on day 1 and day 23). • On day 6-day 21, blood was taken pre-dosing of the controlled release anagrelide composition for full blood count (FBC) and platelet count (every day), trough PK (day 7, day 10, day 13, day 16 and day 19) and clinical chemistry (day 13). • Subjects were readmitted to the unit on the morning of day 22 and remained there until day 25 so that the PK of the final dose of the controlled release composition containing anagrelide on day 23 could be followed for 48 hours. • Subjects returned to the clinic daily from day 26 to day 31 for FBC and platelet counts. • Subjects returned for a follow up visit 14-16 days after the last dose of the controlled release composition containing anagrelide. Study Population:
A controlled release composition of anagrelide as described above in Table 4 of Example 1 (composition 2 fast release with seal coat) was used in unit doses of 100 μg and 300 μg, administered orally.
In this protocol, 4 cohorts of 200 μg, 300 μg, 400 μg and 600 μg doses of the controlled release composition including anagrelide administered twice daily were studied.
Platelet count, collagen-induced platelet aggregation, ADP induced platelet aggregation, template bleeding time, AUC0-t, AUC0-∞, Cmax, Cmin, t1/2, λZ and tmax were determined.
The starting dose of 200 μg (as a single dose on day 1 and then twice a day for 21 days) was chosen as a dose unlikely to cause any clinically significant reduction in platelet counts in healthy subjects. This starting dose was chosen because identification of the lowest dose of the controlled release composition containing anagrelide producing any effect on platelet counts was of interest. In each subsequent cohort the dose was increased by […] twice a day with the objective of identifying the dose range that lowers platelet counts by 30-50%. With daily monitoring of platelet counts, this escalation was determined to allow identification of the effective dose range of the controlled release composition of anagrelide without placing the subjects at significant clinical risk.

Series [2] relates to cultured megakaryocytes. The conditions noted are these: cited from earlier work.
For series [3] the following is noted: patients with ET or other myeloproliferative diseases; cited from earlier work.
For series [4] the following is noted: commercially available instant release formulation; cited from earlier work.
Series [5] concerns PDEIII. The conditions noted are these: cited from earlier work.
For series [6] the following is noted: 38 volunteers, single 1 mg dose of immediate release anagrelide (Agrylin); cited from earlier work.
The nature of series [7]: Pre-formulation excipient compatibility by high sensitivity isothermal calorimetry. The settings on record: binary mixture 1:1, isothermal calorimetry, 24 hours, 30-80° C. In kind it is physicochemical. Here is the method: Pre-formulation studies utilizing binary mixtures of the API with various excipients (ethylcellulose, Eudragit® RS and RL, Aquacoat® ECD30, ammonium oleate and Surelease® E7 1904) were conducted using a high sensitivity calorimeter in isothermal mode. Excipients were compared on their own and as mixtures with/without saturated sodium chloride solution present. In this technique, the heat changes in samples (API alone, excipient alone, API:excipient (1:1 ratio)) were monitored over 24 hours at a temperature range of 30-80° C. […] Improved dosage forms were formed by employing ethylcellulose in the excipient system and a mode of application including organic (ethanol) spray application due to the insolubility of ethylcellulose in water.
On the technique in general: In ITC the heat of successive injections is recorded.

We go through four compounds from patent US9750698B2, “Controlled release compositions of agents that reduce circulating levels of platelets and methods therefor” (BioVascular, Inc., priority 2008, dated 2017).

SMILES strings stand for the structures.

For `O=C1NC2=Nc3ccc(Cl)c(Cl)c3CN2C1O` (centres unmarked) [3-Hydroxy-Anagrelide], in series [1] (cohort 1 (0.2 mg), day 1), the Kel came out at 0.0985 h⁻¹, the t1/2 is recorded as 7.78 h, the AUC0-inf is 4.6957 ng·h/mL and the AUC0-t turned out to be 4.04622 ng·h/mL. In series [1] (cohort 1 (0.2 mg), day 1), the AUC0-τ was found to be 4.17916 ng·h/mL, the Cmax came out at 0.61542 ng/mL and the “Tmax (median)” value is recorded as 4.01 h. In series [1] (cohort 1 (0.2 mg), day 23), this compound yielded a Kel of 0.0608 h⁻¹, a t1/2 of 12.69 h, an AUC0-inf of 7.27841 ng·h/mL and an AUC0-τ of 5.66247 ng·h/mL. In addition, in series [1] (cohort 1 (0.2 mg), day 23), the Cmax worked out at 0.75569 ng/mL and the “Tmax (median)” value worked out at 3.00 h. Further, in series [1] (cohort 2 (0.4 mg), day 1), the Kel came out at 0.0641 h⁻¹, the t1/2 worked out at 11.64 h, the AUC0-inf is 3.98674 ng·h/mL and the AUC0-t is 3.36645 ng·h/mL. Also, in series [1] (cohort 2 (0.4 mg), day 1), the AUC0-τ was 3.04925 ng·h/mL, the peak concentration (Cmax) amounted to 0.35828 ng/mL and the “Tmax (median)” value amounted to 3.51 h. Moreover, in series [1] (cohort 2 (0.4 mg), day 23), the Kel turned out to be 0.0527 h⁻¹, the t1/2 amounted to 13.77 h, the AUC0-inf was 6.18331 ng·h/mL and the AUC0-τ was 4.8106 ng·h/mL. In addition, in series [1] (cohort 2 (0.4 mg), day 23), the Cmax amounted to 0.5158 ng/mL and the “Tmax (median)” value came out at 3.02 h. In series [1] (cohort 3 (0.6 mg), day 1), this compound gave a Kel of 0.0673 h⁻¹, a t1/2 of 12.87 h, an AUC0-inf of 4.6058 ng·h/mL and an AUC0-t of 3.93912 ng·h/mL. Further, in series [1] (cohort 3 (0.6 mg), day 1), the AUC0-τ was determined as 3.50858 ng·h/mL, the Cmax was 0.44422 ng/mL and the “Tmax (median)” value was determined as 4.00 h. In series [1] (cohort 4 (0.3 mg), day 1), the Kel was determined as 0.0596 h⁻¹, the t1/2 was determined as 15.30 h, the AUC0-inf is 4.46186 ng·h/mL and the AUC0-t came to 3.40306 ng·h/mL. For the same compound, in series [1] (cohort 4 (0.3 mg), day 1), the AUC0-τ was 2.99087 ng·h/mL, the Cmax was determined as 0.40142 ng/mL and the “Tmax (median)” value is reported as 3.61 h. For the same compound, in series [1] (cohort 4 (0.3 mg), day 23), the Kel came out at 0.0492 h⁻¹, the t1/2 is 15.13 h, the AUC0-inf turned out to be 5.45894 ng·h/mL and the AUC0-τ was found to be 4.28075 ng·h/mL. Also, in series [1] (cohort 4 (0.3 mg), day 23), the highest concentration (Cmax) stood at 0.45837 ng/mL and the “Tmax (median)” value came to 3.00 h.

Regarding `O=C1NC2=Nc3ccc(Cl)c(Cl)c3CN2C1O` (centres unmarked) [3-hydroxy anagrelide, 6,7-dichloro-3-hydroxy-1,5-dihydro-imidazo[2,1-b]quinazolin-2-one], the “In vitro effects on megakaryocytopoiesis relative to anagrelide” value in series [2] was “equipotent”. In addition, in series [3], the Observed half-life is recorded as 3.9 h and the “Share of all drug-related products in the plasma” value was “about 45%”. For the same compound, the Terminal half-life in series [4] was 3.9 h. In addition, the “Potency as PDEIII inhibitor relative to anagrelide” value in series [5] is 40 times. In series [6], the “AUC0-inf ± RSD (%)” value was 18.0 ± 35.6 ng·h/mL, the “Cmax ± RSD (%)” value is listed as 5.47 ± 56.9 ng/mL, the “Tmax ± RSD (%)” value was 1.28 ± 58.1 h and the “t1/2 ± RSD (%)” value is recorded as 2.5 ± 28.7 h.

With `Cl.O.O=C1CN2Cc3c(ccc(Cl)c3Cl)N=C2N1` [API, 6,7-dichloro-1,5-dihydroimidazo-[2,1-b]quinazolin-2(3H)-one mono-hydrochloride monohydrate], in series [7], the “Compatibility with Aquacoat” value is reported as “not conclusive as to compatibility”; the “Compatibility with Eudragit (RS and RL)” value is “showed evidence of incompatibility”; the “Compatibility with Surelease” value was “showed evidence of incompatibility”; the “Compatibility with ammonium oleate” value is on record as “showed evidence of incompatibility”. For the same compound, in series [7], the Compatibility with ethylcellulose result is on record as “showed evidence of compatibility”.

As for `NC1=Nc2ccc(Cl)c(Cl)c2CN1` [RL603, 2-amino-5,6-dichloro-3,4-dihydroquinazoline], the “Activity on TPO-induced stimulation of megakaryocytes / megakaryocytopoiesis” value in series [2] is “essentially inactive”. In addition, in series [3], the Observed half-life is reported as 8.7 h and the “Share of all drug-related products in the plasma” value was “about 33%”. The “Activity against PDE III” value in series [5] is “essentially inactive”. Further, in series [6], the “AUC0-inf ± RSD (%)” value was 16.0 ± 32.3 ng·h/mL, the “Cmax ± RSD (%)” value is recorded as 1.36 ± 34.0 ng/mL, the “Tmax ± RSD (%)” value is listed as 2.5 ± 58.5 h and the “t1/2 ± RSD (%)” value is recorded as 7.8 ± 31.1 h.

Broadly, the Cmax is the peak of the concentration-time curve.
